Experiment [1] concerns the target T1, Ephrin type-A receptor 6 (Homo sapiens) (UniProt Q9UF33).
T1 sequence (whole entry): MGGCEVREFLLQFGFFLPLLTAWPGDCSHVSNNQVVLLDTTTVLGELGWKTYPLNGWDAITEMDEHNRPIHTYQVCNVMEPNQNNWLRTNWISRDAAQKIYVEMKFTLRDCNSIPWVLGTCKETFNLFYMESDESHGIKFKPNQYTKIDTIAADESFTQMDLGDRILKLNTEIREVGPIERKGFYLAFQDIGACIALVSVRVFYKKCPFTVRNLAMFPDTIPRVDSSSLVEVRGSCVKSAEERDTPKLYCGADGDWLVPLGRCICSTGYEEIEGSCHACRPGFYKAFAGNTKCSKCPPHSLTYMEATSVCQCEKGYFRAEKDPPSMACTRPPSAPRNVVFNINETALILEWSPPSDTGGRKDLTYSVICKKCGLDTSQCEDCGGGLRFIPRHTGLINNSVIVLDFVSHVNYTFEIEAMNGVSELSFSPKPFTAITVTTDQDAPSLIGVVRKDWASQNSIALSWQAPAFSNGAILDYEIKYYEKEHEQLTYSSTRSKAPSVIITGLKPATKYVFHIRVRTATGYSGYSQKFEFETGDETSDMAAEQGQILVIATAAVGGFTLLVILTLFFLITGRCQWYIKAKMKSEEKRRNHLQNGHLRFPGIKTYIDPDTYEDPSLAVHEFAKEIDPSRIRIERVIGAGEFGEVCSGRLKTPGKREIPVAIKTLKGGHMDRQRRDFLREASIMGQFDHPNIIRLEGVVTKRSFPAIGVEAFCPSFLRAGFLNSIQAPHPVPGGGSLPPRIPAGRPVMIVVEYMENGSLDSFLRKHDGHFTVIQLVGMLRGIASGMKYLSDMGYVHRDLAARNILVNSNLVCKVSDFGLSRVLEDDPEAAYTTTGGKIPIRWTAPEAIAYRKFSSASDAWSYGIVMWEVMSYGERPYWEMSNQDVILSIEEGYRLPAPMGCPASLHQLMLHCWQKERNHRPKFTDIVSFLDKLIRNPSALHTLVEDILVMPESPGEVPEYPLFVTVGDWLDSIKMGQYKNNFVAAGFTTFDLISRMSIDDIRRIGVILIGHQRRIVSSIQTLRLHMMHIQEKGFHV
As to the kind of experiment: Selectivity interaction (KinomeScan (DiscoverX)) EUB0000045b EPHA6.

Experiment [2] addresses Receptor-type tyrosine-protein kinase FLT3 (Homo sapiens) (UniProt P36888). The experiment is described as follows: (§1) Selectivity interaction (KinomeScan (DiscoverX)) EUB0000595a FLT3. The note with it: at 10 µM.
For experiment [3], the system named is Receptor-type tyrosine-protein kinase FLT3 (Homo sapiens), P36888 [UNDEFINED MUTATION]. The experiment is described as §1. The note with it: at 10 µM.
Experiment [4] relates to T2, Receptor-type tyrosine-protein kinase FLT3 (Homo sapiens), P36888 [N841I].
T2 sequence (whole entry): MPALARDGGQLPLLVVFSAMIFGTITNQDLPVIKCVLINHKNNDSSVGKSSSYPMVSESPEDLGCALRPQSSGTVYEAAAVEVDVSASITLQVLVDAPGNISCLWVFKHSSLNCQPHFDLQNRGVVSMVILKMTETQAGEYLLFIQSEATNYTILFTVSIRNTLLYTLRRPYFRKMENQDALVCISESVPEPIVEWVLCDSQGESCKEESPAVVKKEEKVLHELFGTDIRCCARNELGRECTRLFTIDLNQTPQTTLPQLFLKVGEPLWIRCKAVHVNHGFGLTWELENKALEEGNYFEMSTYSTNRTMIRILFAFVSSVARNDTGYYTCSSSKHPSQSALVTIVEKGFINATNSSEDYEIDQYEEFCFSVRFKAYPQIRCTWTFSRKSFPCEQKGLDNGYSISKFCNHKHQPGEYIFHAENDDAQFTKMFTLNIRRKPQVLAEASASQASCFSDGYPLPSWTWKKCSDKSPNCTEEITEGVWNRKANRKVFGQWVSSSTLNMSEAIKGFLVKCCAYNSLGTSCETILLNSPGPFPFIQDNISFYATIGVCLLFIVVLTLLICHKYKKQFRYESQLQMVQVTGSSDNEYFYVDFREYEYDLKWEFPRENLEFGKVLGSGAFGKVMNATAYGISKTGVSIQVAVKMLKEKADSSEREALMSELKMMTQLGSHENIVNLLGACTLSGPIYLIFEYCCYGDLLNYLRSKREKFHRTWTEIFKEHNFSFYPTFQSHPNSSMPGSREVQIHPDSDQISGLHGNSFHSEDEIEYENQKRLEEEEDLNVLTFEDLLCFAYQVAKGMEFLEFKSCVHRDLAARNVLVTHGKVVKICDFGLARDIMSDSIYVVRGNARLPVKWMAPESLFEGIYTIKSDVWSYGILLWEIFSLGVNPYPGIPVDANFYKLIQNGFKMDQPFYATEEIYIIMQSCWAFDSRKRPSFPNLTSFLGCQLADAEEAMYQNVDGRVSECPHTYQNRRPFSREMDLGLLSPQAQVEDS
Described as §1. Conditions: at 10 µM.

Take `C=CC(=O)Nc1cc(-n2c(=O)ccc3cnc4ccc(-c5ccc(NS(C)(=O)=O)cc5)cc4c32)ccc1C`: the % of control in experiment [1] (at 1 µM) is 96%; in experiment [1] (at 10 µM) it was 87%.
In the case of `COCC(=O)NC/C=C/c1ccc2ncnc(Nc3ccc(Oc4ccc(C)nc4)c(C)c3)c2c1` [CP-724714], the % of control was 100% in experiment [2], 87% in experiment [3] and 79% in experiment [4].

These data come from ChEMBL document CHEMBL5465560, “Selectivity Literature for EUbOPEN Chemogenomic Library” (2024).
